{
  "source": "patent US20240226048A1",
  "about": "“METHODS OF TREATMENT USING BEMPEDOIC ACID” (Esperion Therapeutics, Inc., priority 2023, published 2024)",
  "assay": "CLEAR OUTCOMES trial: LDL-cholesterol, hsCRP and other lipid/biomarker end points",
  "format": "in vivo, human",
  "from_the_text": "The CLEAR OUTCOMES trial was a randomized, placebo-controlled, double-blind trial that enrolled patients at 1250 sites in 32 countries. An independent Data Monitoring Committee reviewed safety and efficacy data during the trial.\nPatients 18 to 85 years of age were eligible for enrollment if they met either of two criteria for increased cardiovascular risk, a prior cardiovascular event (secondary prevention) or clinical features that placed them at high risk for a cardiovascular event (primary prevention). (Nicholls S, Lincoff A M, Bays H E, et al. Rationale and design of the CLEAR-outcomes trial: Evaluating the effect of bempedoic acid on cardiovascular events in patients with statin intolerance. Am Heart J. 2021 May; 235: 104-112) All patients provided written informed consent. Patients had to report statin intolerance due to an adverse effect that started or increased during statin therapy and resolved or improved after statin therapy was discontinued. Patients could be enrolled if they tolerated a very low average daily statin dose (e.g., an average daily dose of rosuvastatin <5 mg, atorvastatin <10 mg, simvastatin <10 mg, lovastatin <20 mg, pravastatin <40 mg, fluvastatin <40 mg, or pitavastatin <2 mg). Other lipid-lowering therapies were permitted, including ezetimibe, niacin, bile acid resins, fibrates, and/or proprotein convertase subtilisin kexin type 9 (PCSK9) inhibitors. Full inclusion and exclusion criteria are provided in Nicholls et al. (Am Heart J. 2021).\nEligible patients entered a 4-week run-in period during which patients were treated with single-blind placebo. If patients were intolerant to placebo treatment or if adherence was <80% by tablet count, they were not eligible for randomization. Patients who successfully completed the run-in period were randomly assigned in a 1:1 ratio to receive bempedoic acid at an oral dose of 180 mg or matching placebo, administered daily. Beginning 6 months after enrollment, the central laboratory notified the investigator if the patient's LDL-cholesterol level was ≥25% higher than baseline. These patients were counseled on healthy dietary guidelines and reminded to take all lipid-regulating medications. If repeat testing confirmed that LDL-cholesterol value met the threshold criteria, the provider could adjust the lipid-lowering treatment regimen per standard of care and local guidelines.\nThis was an event-driven trial designed to provide at least 90% power to detect a 15% relative risk reduction for the primary composite end point at an overall two-sided significance level of 0.05. The trial required a minimum of 1620 primary composite events with >24 months of follow-up for all patients and at least 810 first key secondary end points. The average treatment duration was estimated to be 42 months and a lost-to-follow-up rate of 1% per year. Assuming a 3.59% annual event rate in the placebo group, enrollment of 12,600 patients was required, subsequently amended to 14,000. There were no interim efficacy analyses. A hierarchical approach was prespecified to evaluate sequentially each of the six key secondary efficacy end points with statistical significance at each step required to test the next hypothesis, thereby preserving the study-wise Type I error rate at 5%. All analyses were based on the intent-to-treat principle. The primary efficacy end point was analyzed using Cox proportional hazards model with treatment as a factor to generate the hazard ratio (HR) and 95% confidence interval (CI). The p-value was obtained from a log-rank test.",
  "key": {"[1]": {"conditions": "Inadequately Controlled Diabetes at Baseline, median"}, "[2]": {"conditions": "Inadequately Controlled Diabetes at Baseline, observed mean"}, "[3]": {"conditions": "median, 180 mg oral daily, N = 6992"}, "[4]": {"conditions": "observed mean, 180 mg oral daily, N = 6992"}},
  "data": [
    {"smiles": "CC(C)(CCCCCC(O)CCCCCC(C)(C)C(=O)O)C(=O)O", "note": "[Bempedoic Acid, Bempedoic acid]", "values": [
      {"measurement": "Median change from baseline to month 6 in hsCRP", "setting": "180 mg oral daily, N = 6992", "value": "−22.2", "unit": "%"},
      {"measurement": "Change from baseline to Month 6 in fasting glucose", "setting": "All patients, median", "value": -1.0, "unit": "mg/dL"},
      {"measurement": "Change from baseline to Month 12 in fasting glucose", "setting": "All patients, median", "value": 0.0, "unit": "mg/dL"},
      {"measurement": "Change from baseline to Month 6 in HbA1c (%)", "setting": "All patients, observed mean", "value": "−0.003", "unit": "%"},
      {"measurement": "Change from baseline to Month 12 in HbA1c (%)", "setting": "All patients, observed mean", "value": 0.04, "unit": "%"},
      {"measurement": "Change from baseline to Month 6 in fasting glucose", "setting": "[1]", "value": -4.0, "unit": "mg/dL"},
      {"measurement": "Change from baseline to Month 12 in fasting glucose", "setting": "[1]", "value": -2.75, "unit": "mg/dL"},
      {"measurement": "Change from baseline to Month 6 in HbA1c (%)", "setting": "[2]", "value": "−0.20", "unit": "%"},
      {"measurement": "Change from baseline to Month 12 in HbA1c (%)", "setting": "[2]", "value": "−0.06", "unit": "%"},
      {"measurement": "Change from baseline to month 12 in HbA1C in patients with inadequately controlled type 2 diabetes mellitus", "setting": "adjusted for baseline HbA1c, pattern-mixed model, 180 mg oral daily", "value": "−0.04", "unit": "%"},
      {"measurement": "Mean change from baseline to month 6 in mean LDL-C", "setting": "adjusted for baseline LDL-C, pattern-mixed model, 180 mg oral daily, N = 6992", "value": "−21.1", "unit": "%"},
      {"measurement": "reduction of hsCRP", "setting": "after 6 months treatment, compared with placebo, median baseline 2.3 mg/L", "value": 21.6, "unit": "%"},
      {"measurement": "Change from baseline to month 12 in HbA1C in patients with inadequately controlled type 2 diabetes mellitus, Difference (95% CI)", "setting": "difference vs placebo", "value": "−0.03", "unit": "%"},
      {"measurement": "Mean change from baseline to month 6 in mean LDL-C, Difference (95% CI)", "setting": "difference vs placebo", "value": "−20.3", "unit": "%"},
      {"measurement": "Median change from baseline to month 6 in hsCRP, Difference (95% CI)", "setting": "difference vs placebo", "value": "−21.6", "unit": "%"},
      {"measurement": "Percent change from baseline to Month 6 in triglycerides", "setting": "[3]", "value": "−3.4", "unit": "%"},
      {"measurement": "Percent change from baseline to Month 12 in triglycerides", "setting": "[3]", "value": "−4.8", "unit": "%"},
      {"measurement": "Percent change from baseline to Month 6 in HDL-C", "setting": "[4]", "value": "−5.8% ±"},
      {"measurement": "Percent change from baseline to Month 6 in non-HDL-C", "setting": "[4]", "value": "−17.2% ±"},
      {"measurement": "Percent change from baseline to Month 6 in total cholesterol", "setting": "[4]", "value": "−16.9% ±"},
      {"measurement": "Percent change from baseline to Month 12 in HDL-C", "setting": "[4]", "value": "−5.7% ±"},
      {"measurement": "Percent change from baseline to Month 12 in non-HDL-C", "setting": "[4]", "value": "−17.1% ±"},
      {"measurement": "Percent change from baseline to Month 12 in total cholesterol", "setting": "[4]", "value": "−14.8% ±"},
      {"measurement": "Percent change from baseline to Month 24 in non-HDL-C", "setting": "[4]", "value": "−16.2% ±"}
    ]}
  ]
}
